Experiment [1] addresses Beta-1 adrenergic receptor (Homo sapiens, UniProt P08588). As to the kind of experiment: DRUGMATRIX: Adrenergic beta1 radioligand binding (ligand: [125I] Cyanopindolol). Type of experiment: cell membranes, CHO-K1, Membrane. The note with it: cho-k1; Not Active = under 50% inhibition at 10 µM.
Experiment [2] can be described thus: DRUGMATRIX: Tumor Necrosis Factor (TNF), Non-Selective radioligand binding (ligand: [125I] TNF-alpha). Format: cell membranes, Membrane. The note with it: u-937; Not Active = under 50% inhibition at 10 µM.
The target of experiment [3] is C-C chemokine receptor type 2 (Homo sapiens, UniProt P41597). Format: cell membranes, Membrane. As to conditions: cho-k1. Also: in other assays of this panel Not Active means under 50% inhibition at 10 µM.
The next experiment deals with D(3) dopamine receptor (Homo sapiens, UniProt P35462). As to the kind of experiment: DRUGMATRIX: Dopamine D3 radioligand binding (ligand: [3H] Spiperone). Format: cell membranes, CHO, Membrane. The note with it: for Ki: read-out: Ki.
The next experiment addresses T1, Endothelin-1 receptor (Homo sapiens, UniProt P25101).
T1 sequence (P25101 whole entry): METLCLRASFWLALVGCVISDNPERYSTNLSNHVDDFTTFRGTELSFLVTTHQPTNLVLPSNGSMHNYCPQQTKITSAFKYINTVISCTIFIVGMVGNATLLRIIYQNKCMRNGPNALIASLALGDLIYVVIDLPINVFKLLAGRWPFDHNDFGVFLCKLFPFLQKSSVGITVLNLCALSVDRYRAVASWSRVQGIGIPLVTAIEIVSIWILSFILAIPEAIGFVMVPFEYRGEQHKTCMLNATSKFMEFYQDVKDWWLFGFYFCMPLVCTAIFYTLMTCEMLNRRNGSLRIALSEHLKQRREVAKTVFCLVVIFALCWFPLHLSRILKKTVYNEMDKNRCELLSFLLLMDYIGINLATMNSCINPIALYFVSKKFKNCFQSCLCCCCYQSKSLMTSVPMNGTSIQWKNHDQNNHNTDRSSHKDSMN
Format: cell membranes, Membrane. The note with it: cho-k1.

For another experiment, the target named is Histamine H2 receptor (Homo sapiens, UniProt P25021). Type of experiment: cell membranes, CHO-K1, Membrane. Also: in other assays of this panel Not Active means under 50% inhibition at 10 µM.
The target in another experiment is T2, Cathepsin G (Homo sapiens, UniProt P08311).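 Also: inhibition of Cathepsin G enzyme activity, tested on an AMC-conjugated peptide substrate; in other assays of this panel Not Active means under 50% inhibition at 10 µM.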
T2 sequence (P08311 whole entry): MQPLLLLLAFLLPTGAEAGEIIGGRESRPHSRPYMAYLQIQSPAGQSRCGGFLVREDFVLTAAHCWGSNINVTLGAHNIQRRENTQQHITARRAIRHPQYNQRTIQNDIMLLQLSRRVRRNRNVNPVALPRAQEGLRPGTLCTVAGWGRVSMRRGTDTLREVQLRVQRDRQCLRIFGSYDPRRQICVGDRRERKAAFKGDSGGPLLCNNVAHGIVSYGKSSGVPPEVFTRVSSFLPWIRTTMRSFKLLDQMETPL
Type of experiment: tissue-based. As to conditions: neutrophil.

The results in this text go back to ChEMBL document CHEMBL1909046, “DrugMatrix in vitro pharmacology data”.

The structures appear in SMILES notation.

Usually IC50 stands for the concentration needed to halve the response being measured. A word on the Ki: it is the dissociation constant of the complex between target and ligand, obtained from inhibition or displacement.

D(3) dopamine receptor, sequence (P35462 whole entry): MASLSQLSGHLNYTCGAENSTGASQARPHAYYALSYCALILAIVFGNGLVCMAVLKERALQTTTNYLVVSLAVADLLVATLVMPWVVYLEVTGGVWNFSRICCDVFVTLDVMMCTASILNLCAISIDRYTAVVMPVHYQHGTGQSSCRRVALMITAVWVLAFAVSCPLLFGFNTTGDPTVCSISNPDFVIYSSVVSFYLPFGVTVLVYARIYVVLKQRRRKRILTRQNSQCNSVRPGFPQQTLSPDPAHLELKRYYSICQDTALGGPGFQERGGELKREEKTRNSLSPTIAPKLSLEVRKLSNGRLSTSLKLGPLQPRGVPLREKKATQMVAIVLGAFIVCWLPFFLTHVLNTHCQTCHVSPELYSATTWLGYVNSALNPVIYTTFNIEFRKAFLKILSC
Histamine H2 receptor, sequence (P25021 whole entry): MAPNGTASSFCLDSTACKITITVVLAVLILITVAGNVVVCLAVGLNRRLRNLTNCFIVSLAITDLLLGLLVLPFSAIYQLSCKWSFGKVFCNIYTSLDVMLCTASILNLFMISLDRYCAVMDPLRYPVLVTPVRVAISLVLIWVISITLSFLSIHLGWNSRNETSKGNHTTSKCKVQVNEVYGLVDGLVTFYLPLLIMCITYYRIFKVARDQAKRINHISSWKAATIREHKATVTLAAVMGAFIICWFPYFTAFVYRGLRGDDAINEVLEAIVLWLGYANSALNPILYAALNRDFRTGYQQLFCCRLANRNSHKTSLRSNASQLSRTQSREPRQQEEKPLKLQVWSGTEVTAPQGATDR
C-C chemokine receptor type 2, sequence (P41597 whole entry): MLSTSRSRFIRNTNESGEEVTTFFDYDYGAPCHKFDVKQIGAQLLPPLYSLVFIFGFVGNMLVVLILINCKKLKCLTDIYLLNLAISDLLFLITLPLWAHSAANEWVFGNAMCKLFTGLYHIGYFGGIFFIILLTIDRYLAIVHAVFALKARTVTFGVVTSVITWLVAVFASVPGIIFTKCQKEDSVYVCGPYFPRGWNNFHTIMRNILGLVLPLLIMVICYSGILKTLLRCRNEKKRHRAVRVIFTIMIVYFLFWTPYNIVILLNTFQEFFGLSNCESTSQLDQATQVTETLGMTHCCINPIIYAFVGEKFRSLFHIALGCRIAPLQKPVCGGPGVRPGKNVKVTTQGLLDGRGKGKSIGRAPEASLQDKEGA
Beta-1 adrenergic receptor, sequence (P08588 whole entry): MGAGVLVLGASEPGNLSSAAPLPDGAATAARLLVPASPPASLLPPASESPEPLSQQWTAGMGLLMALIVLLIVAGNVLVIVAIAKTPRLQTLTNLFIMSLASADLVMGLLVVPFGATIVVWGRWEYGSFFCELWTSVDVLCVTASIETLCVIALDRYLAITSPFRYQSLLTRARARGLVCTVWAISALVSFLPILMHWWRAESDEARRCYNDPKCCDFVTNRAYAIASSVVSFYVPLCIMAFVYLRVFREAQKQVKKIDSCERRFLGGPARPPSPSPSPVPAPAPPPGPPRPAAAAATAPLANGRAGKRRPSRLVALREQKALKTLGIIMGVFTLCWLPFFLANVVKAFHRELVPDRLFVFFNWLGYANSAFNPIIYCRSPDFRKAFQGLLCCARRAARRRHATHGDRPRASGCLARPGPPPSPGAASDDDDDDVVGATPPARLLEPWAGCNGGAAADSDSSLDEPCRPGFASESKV

As to `Cc1c(C)c2c(c(C)c1O)CCC(C)(CN1CCN(c3cc(N4CCCC4)nc(N4CCCC4)n3)CC1)O2` (stereo not given), the IC50 result was “Not Active” in experiment [1]; “Not Active” in experiment [2]; “Not Active” in experiment [3]; 5200 nM on D(3) dopamine receptor (read-out: IC50); “Not Active” on Endothelin-1 receptor; “Not Active” on Histamine H2 receptor (cho-k1). Besides, the IC50 result against Cathepsin G is “Not Active”. Besides, the results for the Ki result (in experiment [2]; at D(3) dopamine receptor) were “Not Active” and 1770 nM, respectively.

As to `COc1ccc(CCN(C)CCCC(C#N)(c2ccc(OC)c(OC)c2)C(C)C)cc1OC` (stereo not given), the half-maximal inhibitory concentration (IC50) result (in experiment [1]; in experiment [2]; in experiment [3]; against Endothelin-1 receptor; against Cathepsin G) was “Not Active” in each case. The Ki result in experiment [2] is on record as “Not Active”.

On to `CC(C)Cc1ccc([C@@H](C)C(=O)O)cc1` [(R)-IBUPROPHEN], for which the IC50 entry (in experiment [1]; in experiment [2]; in experiment [3]; on D(3) dopamine receptor (cho); at Endothelin-1 receptor; at Histamine H2 receptor (cho-k1)) was “Not Active” in each case. Besides, the IC50 result against Cathepsin G is listed as “Not Active”. Moreover, in experiment [2], the inhibitory constant (Ki) result is reported as “Not Active”.

With `CN(C)CCOC(c1ccccc1)c1ccccc1` [DIPHENHYDRAMINE], the IC50 result (in experiment [1]; in experiment [3]; on D(3) dopamine receptor (cho); against Endothelin-1 receptor; against Histamine H2 receptor (cho-k1); on Cathepsin G) was “Not Active” each time.

Regarding `Clc1ccc(COC(Cn2ccnc2)c2ccc(Cl)cc2Cl)cc1` (stereo not given) [ECONAZOLE], the IC50 entry (in experiment [3]; at Endothelin-1 receptor; at Cathepsin G) was “Not Active” in each case.

Regarding `CCN(CC)CCOc1ccc(/C(=C(/Cl)c2ccccc2)c2ccccc2)cc1` [ENCLOMIPHENE], the IC50 result (in experiment [1]; in experiment [3]; at Endothelin-1 receptor; at Histamine H2 receptor (cho-k1); at Cathepsin G) was “Not Active” in each case.

As for `Fc1ccc(C(c2ccc(F)cc2)N2CCN(C/C=C/c3ccccc3)CC2)cc1` [FLUNARIZINE], the IC50 entry in experiment [1] is “Not Active”; in experiment [3] it was “Not Active”; on D(3) dopamine receptor (read-out: IC50) it was 97 nM; against Endothelin-1 receptor, “Not Active”; against Histamine H2 receptor (cho-k1), “Not Active”; against Cathepsin G, “Not Active”. For the same compound, at D(3) dopamine receptor, the inhibitory constant (Ki) worked out at 33 nM.

For `CNCCC(Oc1ccc(C(F)(F)F)cc1)c1ccccc1` (stereo not given) [FLUOXETINE], the IC50 entry (in experiment [1]; in experiment [3]; at D(3) dopamine receptor (cho); against Endothelin-1 receptor; on Histamine H2 receptor (cho-k1); at Cathepsin G) was “Not Active” each time.

On to `Cc1ccc(NC(=O)c2ccc(CN3CCN(C)CC3)cc2)cc1Nc1nccc(-c2cccnc2)n1` [IMATINIB], for which the IC50 result was “Not Active” in experiment [1]; “Not Active” in experiment [3]; “Not Active” on D(3) dopamine receptor (cho); “Not Active” against Endothelin-1 receptor; 1960 nM at Histamine H2 receptor (read-out: IC50); “Not Active” against Cathepsin G. In addition, the inhibition constant Ki on Histamine H2 receptor (read-out: Ki) came to 1930 nM.

As to `CC(C)Oc1ccc2c(=O)c(-c3ccccc3)coc2c1` [IPRIFLAVONE], the IC50 result (in experiment [1]; in experiment [2]; in experiment [3]; on D(3) dopamine receptor (cho); at Endothelin-1 receptor; at Histamine H2 receptor (cho-k1)) was “Not Active” throughout. The half-maximal inhibitory concentration (IC50) result against Cathepsin G is on record as “Not Active”. The Ki entry in experiment [2] is given as “Not Active”.

Take `CC(C)NCC(O)c1ccc(O)c(O)c1` (stereo not given) [ISOPROTERENOL]: the half-inhibitory concentration (IC50) entry (in experiment [2]; in experiment [3]; on D(3) dopamine receptor (cho); against Endothelin-1 receptor; against Histamine H2 receptor (cho-k1); at Cathepsin G) was “Not Active” in each case. Moreover, in experiment [2], the Ki result is recorded as “Not Active”.

On to `CNC1(c2ccccc2Cl)CCCCC1=O` (stereo not given) [KETAMINE], for which the IC50 result (in experiment [1]; in experiment [2]; in experiment [3]; on D(3) dopamine receptor (cho); at Endothelin-1 receptor; against Histamine H2 receptor (cho-k1)) was “Not Active” each time. In addition, the IC50 entry against Cathepsin G is “Not Active”. In addition, the inhibitory constant (Ki) entry in experiment [2] is listed as “Not Active”.

Regarding `N#Cc1ccc(C(c2ccc(C#N)cc2)n2cncn2)cc1` [LETROZOLE], the IC50 result (in experiment [1]; in experiment [2]; in experiment [3]; at D(3) dopamine receptor (cho); against Endothelin-1 receptor; against Histamine H2 receptor (cho-k1)) was “Not Active” in each case. Moreover, the half-maximal inhibitory concentration (IC50) result against Cathepsin G is “Not Active”. Further, the Ki entry in experiment [2] is recorded as “Not Active”.

As to `CCN1CCC[C@H]1CNC(=O)c1cc(S(N)(=O)=O)ccc1OC` [LEVOSULPIRIDE], the IC50 entry (in experiment [1]; in experiment [2]; in experiment [3]; at Endothelin-1 receptor; against Histamine H2 receptor (cho-k1); against Cathepsin G) was “Not Active” throughout. Also, the inhibitory constant (Ki) result in experiment [2] is “Not Active”.

As for `CCN(CC)CC(=O)Nc1c(C)cccc1C` [LIDOCAINE], the concentration for half-maximal inhibition (IC50) result (in experiment [1]; in experiment [2]; in experiment [3]; at D(3) dopamine receptor (cho); at Endothelin-1 receptor; at Histamine H2 receptor (cho-k1)) was “Not Active” in each case. For the same compound, the IC50 result on Cathepsin G is “Not Active”. Moreover, the Ki result in experiment [2] is “Not Active”.

For `O=C1Nc2ccc(Cl)cc2C(c2ccccc2Cl)=NC1O` (stereo not given) [LORAZEPAM], the half-maximal inhibitory concentration (IC50) result (in experiment [1]; in experiment [2]; in experiment [3]; on D(3) dopamine receptor (cho); at Endothelin-1 receptor; on Histamine H2 receptor (cho-k1)) was “Not Active” in each case. Besides, at Cathepsin G, the IC50 result is recorded as “Not Active”. Further, in experiment [2], the Ki result is recorded as “Not Active”.

With `CO[C@@H]1[C@@H](OC)[C@H](C)[C@@](O)(CC(=O)O)O[C@H]1[C@H](C)[C@H]1O[C@@]2(CC[C@@](C)([C@H]3CC[C@@](C)([C@@H]4O[C@@H]([C@H]5O[C@](C)(O)[C@H](C)C[C@@H]5C)C[C@@H]4O[C@@H]4C[C@H](OC)[C@@H](OC)[C@H](C)O4)O3)O2)C[C@H](O)[C@H]1C` [MADURAMICIN ACID], the IC50 entry was “Not Active” in experiment [1]; “Not Active” in experiment [2]; “Not Active” in experiment [3]; 27 nM on D(3) dopamine receptor (read-out: IC50); “Not Active” on Endothelin-1 receptor; “Not Active” at Histamine H2 receptor (cho-k1). On Cathepsin G, the IC50 result was “Not Active”. Besides, the inhibitory constant (Ki) entry in experiment [2] is “Not Active”; on D(3) dopamine receptor it was 9.34 nM.

As to `COc1c2occc2cc2ccc(=O)oc12` [METHOXSALEN], the IC50 entry (in experiment [1]; in experiment [2]; in experiment [3]; on D(3) dopamine receptor (cho); against Endothelin-1 receptor; at Histamine H2 receptor (cho-k1)) was “Not Active” each time. At Cathepsin G, the IC50 entry is recorded as “Not Active”. The Ki result in experiment [2] is recorded as “Not Active”.

`C[C@H]1C[C@@H]2[C@H]([C@@H](O)C[C@@]3(C)[C@H]2CC[C@]3(O)C(=O)CO)[C@@]2(C)C=CC(=O)C=C12` [METHYLPREDNISOLONE]: the 50% inhibitory concentration (IC50) entry (in experiment [1]; in experiment [2]; in experiment [3]; at D(3) dopamine receptor (cho); at Endothelin-1 receptor; at Histamine H2 receptor (cho-k1)) was “Not Active” each time. The IC50 result on Cathepsin G is “Not Active”. Besides, in experiment [2], the inhibition constant Ki result is listed as “Not Active”.

With `Cc1cccc(C)c1OCC(C)N` (stereo not given) [MEXILETINE], the IC50 result (in experiment [1]; in experiment [2]; in experiment [3]; on D(3) dopamine receptor (cho); on Endothelin-1 receptor; against Histamine H2 receptor (cho-k1)) was “Not Active” each time. Also, at Cathepsin G, the IC50 entry is “Not Active”. Also, the Ki entry in experiment [2] was “Not Active”.

As to `Nc1cc(N2CCCCC2)nc(N)[n+]1[O-]` [MINOXIDIL], the concentration for half-maximal inhibition (IC50) result (in experiment [1]; in experiment [2]; in experiment [3]; on D(3) dopamine receptor (cho); against Endothelin-1 receptor; against Histamine H2 receptor (cho-k1)) was “Not Active” each time. Moreover, the 50% inhibitory concentration (IC50) entry against Cathepsin G is on record as “Not Active”. Also, in experiment [2], the inhibition constant (Ki) entry was “Not Active”.

Regarding `CN[C@H]1CC[C@@H](c2ccc(Cl)c(Cl)c2)c2ccccc21` [SERTRALINE], the 50% inhibitory concentration (IC50) entry (in experiment [1]; in experiment [3]; on D(3) dopamine receptor (cho); at Endothelin-1 receptor; at Histamine H2 receptor (cho-k1); on Cathepsin G) was “Not Active” in each case.

As for `CC(C)NCC(O)c1ccc(NS(C)(=O)=O)cc1` (stereo not given) [SOTALOL], the IC50 entry (in experiment [2]; in experiment [3]; on D(3) dopamine receptor (cho); against Endothelin-1 receptor; on Histamine H2 receptor (cho-k1); against Cathepsin G) was “Not Active” throughout. Also, the inhibition constant (Ki) result in experiment [2] is listed as “Not Active”.
